Drawing on ChEMBL document CHEMBL5247578, “Effective synthesis of benzimidazoles-imidazo[1,2-a]pyrazine conjugates: A comparative study of mono-and bis-benzimidazoles for antitumor activity” (Eur J Med Chem, 2019), this text covers TGI for one compound.

The subject of the assay is EKVX. Kind of assay: Growth inhibition against human EKVX cells assessed as total growth inhibitory concentration incubated for 48 hrs by sulforhodamine B assay. It counts as functional.

Turning to `COc1ccc(-c2cn3ccnc3c(-c3ccc4ncn(C5CCCCC5)c4c3)n2)cc1`, the TGI (as a rule, the concentration giving total growth inhibition) was over 100 µM.
